| Structure (SMILES) | melting point [°C] |
| --- | --- |
| CCn1c(=O)c2c(nc(/C=C/c3cccc(C(C)=O)c3)n2C)n(CC)c1=O | 221 to 222 |
| COc1cc(Oc2ccc(S(C)(=O)=O)nc2)cc2cc(C3=NCC(CC(=O)N4CCOCC4)S3)[nH]c12 (configuration not stated) | 148 to 149 |
| Nc1cccc2c(=O)[nH]ccc12 | 258 to 259 |
| C[C@]1(COc2ccc(N3CCS(=O)CC3)cc2)Cn2cc([N+](=O)[O-])nc2O1 | 198 to 200 |
| N#Cc1cnc2sc(-c3cccc(C=O)c3)cc2c1Nc1ccc2[nH]ccc2c1 | 221 to 223 |
| COCc1csc2c(C(=O)O)c(=O)c3cc4c(cc3n12)OCO4 | 265 |
| CC(C)(C)c1cc(CCc2ccccc2NC(=O)NC2CCC(C(C)(C)C)CC2)cc(C(C)(C)C)c1O (configuration not stated) | 206 to 208 |
| NC(=O)c1cc2cc(F)c(F)cc2o1 | 217 |
| CC(C)(C)OC(=O)C1CC(c2ccc(-c3ccc(N4C[C@H](Cn5ccnn5)OC4=O)cc3F)cn2)=NO1 (some centres not stated) | 165 to 168 |
| CC(C)=C1OC(=O)N(c2ccc(Cl)cc2)C1=O | 135 to 136 |
| CNC(CC(C)C)c1nc(-c2ccc3c(c2)Nc2ccccc2S3)cs1 (configuration not stated) | 146 to 148 |
| CN(C)CCCn1c(-c2ccc(Br)cc2)cc2c1CCSC2 | 88 to 90 |
| O=C1NC(=O)N2c3ccc(Cl)cc3[C@H]3CCN4CCC[C@H]1[C@H]4[C@H]32 (racemic) | 243 |
| CCCCCC(=O)Nc1ccnc(-c2ccncc2)n1 | 119 to 120 |
| CCC#CCOc1cc(C=O)ccc1OC | 38 to 39 |
| CCN(CC)CCNc1ccc2c3c(nn2CCN(CC)CC)-c2c(O)ccc(O)c2C(=O)c13 | 152 |
| CCn1c(Cl)c(C=O)c(=O)n(CC)c1=O | 88 to 89 |
| O=C(NCc1ccc(F)c(F)c1)c1ccnc(N2CCN(CC3CC3)C2=O)c1 | 134 to 136 |
| CN1CCc2c(CO)csc2C(c2ccccc2)C1 (configuration not stated) | 115 |

| Structure (SMILES) | melting point [°C] |
| --- | --- |
| Cc1cccc2c1N(CC(=O)c1ccccc1[N+](=O)[O-])C(=O)C(NC(=O)Nc1cccc(-c3nnn[nH]3)c1)N=C2c1ccccc1F (configuration not stated) | 192 to 197 |
| CC1Cc2cc3c(cc2C(c2ccc([N+](=O)[O-])cc2)=NN1c1nc(C(=O)O)cs1)OCO3 (configuration not stated) | > 260 |
| ClC1=Nc2ccccc2Sc2ncccc21 | 134 to 135 |
| CSc1[nH]c2cccc3c2c1CC1C3C=C(C)CN1C (configuration not stated) | 148 to 150 |
| Cc1cn(C(C(=O)N(C)C)C2CCCCC2)nc1-c1ccccc1 (configuration not stated) | 102 to 104 |
| CC1COc2c(N3Cc4ccccc4C3)c(F)cc3c(=O)c(C(=O)O)cn1c23 (configuration not stated) | > 300 |
| CN1C(=O)CC(=O)N(C)c2ccccc21 | 240 to 242 |
| CCc1cc(CO)c(OC)nc1C | 53 to 55 |
| CCOC(=O)c1nc(N)sc1C(=O)c1ccccn1 | 143 to 144 |
| CN1CCN(Cc2ccc(-c3nc4cc([N+](=O)[O-])ccc4o3)s2)CC1 | 135 to 137 |
| C=CCN(C=O)c1ccc([N+](=O)[O-])cc1C | 56 |
| COC(=O)c1sc2nc(C)c(Cl)c(=O)n2c1C | 140 to 141 |
| OCc1ccccc1CBr | 61 to 63 |
| CS(C)=Nc1cnc(Cl)cn1 | 119 to 120 |
| COc1c(F)ccc2c(C3CCN(C(=O)OC(C)(C)C)CC3)noc12 | 94 to 96 |
| CCC(CC)c1ccc(Cl)c2nc3n(c12)CCCCN3c1cnc(N(C)C)cc1C | 156 to 157 |
| Cc1ccc(N)cc1Nc1nccc(-c2cncnc2)n1 | 164 to 167 |
| Nc1nc(OCC2CCCCC2)c2c(n1)=NC(=O)N=2 | 297 |
| c1ccc2sc(=NCCN3CCOCC3)sc2c1 | 75 to 76 |

| Structure (SMILES) | melting point [°C] |
| --- | --- |
| CC(=O)NC[C@H]1CN(c2ccc(C3CCN(CC#N)CC3)c(F)c2)C(=O)O1 | 165 to 167 |
| CN1CCN(c2cccc3c2C[C@H](NC(=O)c2ccc(C4CCCCC4)cc2)CC3)CC1 | 224 to 226 |
| CCCCC(=O)N[C@H]1CC[C@H](CCN2CCN(c3nccc4c3OCC4)CC2)CC1 | 168 |
| S=C1N=c2cc(Cl)c(Cl)cc2=N1 | 328 to 330 |
| C=CCC(=NO)C(C)=NNc1c(Cl)cc(C(F)(F)F)cc1Cl | 71 to 73 |
| C=CCOc1cc2c(cc1C=CC)N(CC=C(C)C)C(=O)CC2 | 87 to 88 |
| CC(C)(C)OC(=O)N1CCO[C@@H](c2ccc(C(N)=O)cc2)C1 | 179 |
| CCN(CC)CC1CCCCN1CCNC(=O)N1c2ccc(Cl)cc2C(=O)Nc2cccnc21 (configuration not stated) | 138 to 140 |
| CC(C)CNC(=O)CC1Sc2sc(S(N)(=O)=O)cc2NC1=O (configuration not stated) | > 250 |
| CCn1cc(C(=O)O)c(=O)c2cc(F)c(N3CCN(C)C(c4cc[nH]c4)C3)cc21 (configuration not stated) | 150 to 152 |
| Cc1nnc2n1-c1sc(CCc3ccc(OC(C)C)cc3)cc1C(c1ccccc1Cl)=NC2 | 121 to 124 |
| COc1cc(C(=O)CCCC2CCCCC2)c(OC)cc1Cl | 80 to 81 |
| COc1ccc(S(=O)(=O)Cl)cc1N1CCN(C(=O)C(F)(F)F)CC1 | 125 to 127 |
| CCCCN(C(=S)NC)c1ccc(Cl)nc1 | 129 to 130 |
| Cc1cc(-c2c(Cl)ccc(C(=O)O)c2Cl)on1 | 154 to 156 |
| O=C1CCC(CCC(=O)OCc2cccc(Cl)c2)N1 (configuration not stated) | 90 to 91 |
| CCOC(=O)c1ccc(C#CCO)cc1 | 58 to 60 |
| CCc1ccc(C2CCC(c3ccc(Oc4ccc([N+](=O)[O-])cc4)cc3)(c3ccc(Oc4ccc([N+](=O)[O-])cc4)cc3)CC2)cc1 | 204 to 205 |
| COCc1ncnc(O)c1C | 139 to 140 |

More lines, now with the values ahead:

| melting point [°C] | Structure (SMILES) |
| --- | --- |
| 62 to 63 | CCc1cc(OCc2ccccc2)cc(=O)o1 |
| 134 to 137 | c1ccc(COc2ccc(C(c3ccc(OCc4ccccc4)cc3)n3cncn3)cc2)cc1 |
| 212 to 214 | O=S(=O)(c1ccccc1)n1c2ccc(Br)cc2c2c(Cl)ccnc21 |
| 144 to 145 | COC(=O)CCC(=O)c1cc2c(=O)c3ccccc3ccc2s1 |
| 110 to 111 | CN1CCN(c2cccc3ccc(OC(=O)c4ccc(Cl)cc4)cc23)CC1 |
| 235 to 236 | NS(=O)(=O)c1cc(C(=O)O)cc(SCc2ccccc2)c1Oc1ccccc1 |
| 96 to 97 | COc1ccc2c(c1)c(CC(=O)OCC(=O)OC(C)(C)C)c(C)n2C(=O)c1ccc(Cl)cc1 |
| 252 to 254 | COc1ccc2c([N+](=O)[O-])c(-c3ccc(OCc4ccccc4)cc3)[nH]c(=O)c2c1 |
| 314 to 317 | Cn1cc2c(C3C(=O)Nc4ccc(Br)cc43)nc(NCCc3cccnc3)nc2n1 (configuration not stated) |
| 144 to 146 | Cc1nc2c(OCc3c(Cl)ccc(S(=O)(=O)N4CCC[C@H]4C(=O)NCc4ccc(C=NN)cc4)c3Cl)cccn2c1C |
| 99 to 100 | CCCc1nn(-c2ccc(C(F)(F)F)cn2)cc1CCCOc1cccc(OC(C)(C)C(=O)O)c1 |
| 191 to 192 | N#CCCNC(=O)c1cccc(-c2cccc3nn(Cc4ccc(F)c(F)c4)cc23)c1 |
| 237 to 240 | CS(=O)(=O)c1ccc(-c2c(-c3ccc(F)cc3)c(=O)n3n2Cc2c(Cl)cccc2-3)cc1 |
| 102 to 118 | CC(Cc1c[nH]c2ccccc12)(NC(=O)OC1C2CC3CC(C2)CC1C3)C(=O)NCC(NC=O)c1ccccc1 (configuration not stated) |
| 191 | CS(=O)(=O)Nc1cccc(-c2cccc(-c3nc(-c4ccc(C(F)(F)F)cc4)cc(C(F)(F)F)n3)c2)c1 |
| 68 to 69 | N#CNc1ccccc1-c1ccccc1F |
| 97 to 98 | N=c1ncccn1CCc1ccccc1Br |
| 110 to 113 | Cc1cccc(-c2nc(NC(=O)Cc3ccccc3)sc2-c2ccnc(NC(=O)Cc3ccccc3)n2)c1 |
| 173 to 177 | COc1ccc(CC#N)cc1S(N)(=O)=O |
| 201 to 203 | COC(=O)c1ccc(C(=O)NS(=O)(=O)c2ccc(CCNC(=O)COc3ccccc3)cc2)cn1 |

| melting point [°C] | Structure (SMILES) |
| --- | --- |
| 75 to 77 | CC(C)C[C@H](NC(=O)c1ccc2c(c1)Nc1ccccc1S2)C(=O)N1CCC2(C1)OCCO2 |
| 315 to 317 | O=C(O)c1ccc(-c2ccn(-c3ccc(C(F)(F)F)cc3)c2)cc1 |
| 113 to 114 | CN[C@@H]1Cc2ccccc2[C@H]1Nc1ccccc1CO (relative stereo) |
| 165 to 167 | COC1=C(OC)C(=O)c2c(cccc2S(=O)c2ccccc2)C1=O (configuration not stated) |
| 80 | O=S(=O)(O)c1ccc(Oc2ccc(-n3ccnc3)cc2)cc1 |
| 83 to 94 | COc1cc2c(cc1Nc1ncc(Cl)c(Nc3ccccc3S(=O)(=O)C(C)C)n1)CCN(CC(=O)N(C)C)CC2 |
| 156 to 157 | Cc1ccc(-c2oc(C(F)(F)F)nc2-c2ccccc2)cc1S(N)(=O)=O |
| 195 to 196 | COc1ccccc1Oc1c(NS(=O)(=O)c2ccc(C)cn2)nc(N2CCOCC2)nc1OCCO |
| 96 to 98 | COc1cccc(P(=O)(c2ccc(C)cc2)c2ccc(C)cc2)c1 |
| 146 to 150 | COC(=O)c1cccc2nc(N3CCCCC3)n(Cc3ccc(-c4ccccc4-c4nnn[nH]4)cc3)c12 |
| 174 to 177 | COc1cc(OC)nc(NC(=O)NS(=O)(=O)Cc2ccccc2-c2nnc(SC)o2)n1 |
| 93 to 106 | O=C(NS(=O)(=O)NCCCN1CCC(Oc2ccc(Cl)c(Cl)c2)CC1)c1ccccc1 |
| 126 to 128 | Cc1cccc(-c2nc(-c3ccc(S(C)(=O)=O)cc3)sc2-c2ccnc(S(=O)(=O)c3ccccc3)c2)c1 |
| 109 to 110 | CCc1ccc(N(Cc2ccc(N(C)C)cc2)C(=O)C2CCCc3ccccc32)cc1 (configuration not stated) |
| 113 to 115 | COc1cc(OC)c(-c2cccn2C)cc1C=CC(=O)c1ccc(S(=O)(=O)Nc2cc(C)on2)cc1 |
| 166 to 167 | Clc1ccc(CNc2nc(NC3CCCc4ccccc43)c3ccccc3n2)cc1 (configuration not stated) |
| 214 to 216 | O=C(O)[C@H]1C[C@H](NC(=O)N(c2ccccc2)c2ccccc2)c2c(Cl)cc(Cl)cc2N1 (relative stereo) |
| 108 to 110 | O=C1c2cc(OCc3ccccc3)ccc2OCC1Cn1ccnc1 (configuration not stated) |
| 179 | CC(C)(Oc1ccc(-c2ccc(CCNC(=O)c3ccccc3)cc2)cc1)C(=O)O |
| 206 to 208 | COc1cccc(NC(=S)NC(NC(=O)c2ccc(C)cc2)C(F)(F)F)c1 (configuration not stated) |

From a melting point compilation (Tetko et al.; mined from patent text by program, amines drawn as free bases though some values may be those of a salt)
